Holding throughout (format): cell-based
Data set [1] deals with Staph. aureus (SG 511). Kind of data set: Agar dilution test (Lorian), antibacterial activity. Particulars: Staphylococcus aureus. The method, then: (§1) Die antibakterielle Wirksamkeit der erfindungsgemäßen Verbindungen wurde im Agar-Verdünnungstest nach Lorian (Antibiotics in Laboratory Medicine, Williams & Wilkins, Baltimore/London, 1980) bestimmt. Dabei wurden die Präparate in einer geometrischen Verdünnungsreihe mit dem Faktor 2 in Müller Hinton Agar verdünnt. Eine Petrischale enthielt nur Müller Hinton Agar und diente zur Kontrolle des Bakterienwachstums. Die Petrischalen wurden dann mit einem Denley-Multipoint-Inokulator, welcher 0,6 µl einer 1 : 100 verdünnten 18-Stunden-Kultur der Testbakterien übertrug, mit den entsprechenden Testbakterien beimpft. Nach 16 bis 18 Stunden Inkubation bei 37°C wurden die Petrischalen makroskopisch auf Bakterienwachstum untersucht.
(§2) Die niedrigste Konzentration der erfindungsgemäßen Verbindungen, welche das Bakterienwachstum noch vollständig verhinderte, wurde als MIC (Minimum Inhibitory Concentration) angenommen.
(§3) In Tabelle 3 ist die Wirkung (Angabe des MIC in µg/ml) von verschiedenen erfindungsgemäßen Verbindungen gegen folgende Bakterien aufgeführt: Staph. aureus (SG 511), Staph. aureus (285), Staph. aureus (503), Strept. pyogenes (308 A), Strept. pyogenes (77 A), Strept. faecium (D). Tabelle 3
For orientation: In agar dilution the substance is mixed into plates at graded concentrations.

Data set [2] has as its system Strept. faecium (D). Described as above. The note with it: Enterococcus faecium. The method, then: as §1, §2, §3
Data set [3] deals with Strept. pyogenes (77 A). The data set is described as above. Particulars: Streptococcus pyogenes. The method, then: as §1, §2, §3
The test system of data set [4] is Staph. aureus (285). Described as above. Particulars: Staphylococcus aureus. The method, then:
as §1, §2, §3

For data set [5], the system named is Strept. pyogenes (308 A). The description is as above. Particulars: Streptococcus pyogenes. On the procedure: as §1, §2, §3
Data set [6] deals with Staph. aureus (503). The data set is described as above. The note with it: Staphylococcus aureus. On the procedure:
as §1, §2, §3

Data set [7] has as its system Herpes I. The note with it: HeLa or Vero cells, 72 h CPE, about 50 % of the cells survive.
For data set [8], the system named is Herpes II. Particulars: HeLa or Vero cells, 72 h CPE, about 50 % of the cells survive.
Data set [9] deals with Vaccina. Particulars: HeLa or Vero cells, 72 h CPE, about 50 % of the cells survive.
The test system of data set [10] is Adeno 5. The note with it: HeLa or Vero cells, 72 h CPE, concentration at which about 50 % of the cells survive the infection.
Data set [11] relates to Paramyxo. III. The note with it: HeLa or Vero cells, 72 h CPE, about 50 % of the cells survive.
Data set [12] deals with HeLa- bzw. Vero-Zellen. Kind of data set: Maximum tolerated dose (DTM) in cell culture. Particulars: HeLa or Vero cells. The method, then: Die Prüfsubstanzen wurden in Zellkulturmedium (Dulbecco's MEM) gelöst und in einer geometrischen Verdünnungsreihe, Faktor 3, in Standard-Mikrotiterplatten in 100 µl Zellkulturmedium vorgelegt. Anschließend erfolgte die Zugabe von 100 µl einer Suspension von HeLa- bzw. Vero-Zellen in Medium mit 5 % fötalem Kälberserum in einer Zelldichte von 2 x 10⁵ Zellen/ml. Die Ansätze wurden mit 50 µl einer Suspension des jeweiligen Test-Virus infiziert, die so eingestellt war, daß die Zellen innerhalb von 72 h einen cytopathogenen Effekt (CPE) zeigten. Die Auswertung erfolgte durch mikroskopische Begutachtung des Zellrasens und photometrische Messung der Neutralrotaufnahme (Farbtest nach Finter). Als MHK wurde die Konzentration des Präparats angenommen (µg/ml), bei der etwa 50 % der Zellen die Infektion überlebten.
In Spalte 9 ist die DTM (Dosis Tolerata Maxima) in µg/ml angegeben. Tabelle 4

In data set [13] the test system is Rhinovirus II. Particulars: Rhino. II; HeLa or Vero cells, 72 h CPE; about 50 % of the cells survive.
For data set [14], the system named is Influenza A. Particulars: HeLa or Vero cells, 72 h CPE, about 50 % of the cells survive.
[15] abbreviates: Staph. aureus (SG 511), Müller Hinton Agar, 16 to 18 h at 37°C, lowest concentration that completely prevents growth, read-out: MIC.
The mark [16] stands for this setting: Strept. faecium (D), Müller Hinton Agar, 16 to 18 h at 37°C, read-out: MIC.
The mark [17] stands for this setting: Strept. pyogenes (77 A), Müller Hinton Agar, 16 to 18 h at 37°C, read-out: MIC.
The mark [18] stands for this setting: Staph. aureus (285), Müller Hinton Agar, 16 to 18 h at 37°C, read-out: MIC.
[19] abbreviates: Strept. pyogenes (308 A), Müller Hinton Agar, 16 to 18 h at 37°C, read-out: MIC.
The mark [20] stands for this setting: Staph. aureus (503), Müller Hinton Agar, 16 to 18 h at 37°C, read-out: MIC.

By MIC is commonly meant the smallest concentration in the dilution series that meets the test's criterion for growth inhibition.

Molecules are shown by their SMILES. Values after ≈ are worked out from the molar mass of the structure shown. Where two headings read alike, the source gives them in different places.

Turning to `COC1CC(CC2CCC(C)C(C(C)C(=O)O)O2)OC2(OC(C)(C3CCC(C)(C4OC(C5OC(O)(C[N+](=O)[O-])C(C)CC5C)CC4C)O3)CC2C)C1C` (stereo not shown) [Beispiel 5], the MIC was 0.049 µg/mL (≈ 0.065 µM) in data set [1] (setting [15]); 0.098 µg/mL (≈ 0.13 µM) in [2] (setting [16]); 0.004 µg/mL (≈ 0.00531 µM) in data set [3] (setting [17]); 0.049 µg/mL (≈ 0.065 µM) in [4] (setting [18]); 0.004 µg/mL (≈ 0.00531 µM) in [5] (setting [19]); 0.025 µg/mL (≈ 0.0332 µM) in data set [6] (setting [20]).

On to `COC1CC(CC2CCC(C)C(C(C)C(=O)O)O2)OC2(OC(C)(C3CCC(C)(C4OC(C5OC(O)(CO[Si](c6ccccc6)(c6ccccc6)C(C)(C)C)C(C)CC5C)CC4C)O3)CC2C)C1C` (stereo not shown) [Beispiel 9], for which the MHK in data set [7] is reported as 0,05 µg/ml; in data set [8], 0,05 µg/ml; in data set [9], 4,44 µg/ml; in [10], 0,05 µg/ml; in [11], 4,44 µg/ml; in data set [13], 4,44 µg/ml. For the same compound, in data set [14], the MHK is 0,05 µg/ml. In addition, the MIC came out at 0.78 µg/mL (≈ 0.81 µM) in data set [1]; 0.7 µg/mL (≈ 0.727 µM) in data set [2]; 0.025 µg/mL (≈ 0.026 µM) in data set [3]; 0.78 µg/mL (≈ 0.81 µM) in data set [4]; 0.025 µg/mL (≈ 0.026 µM) in data set [5]; 0.78 µg/mL (≈ 0.81 µM) in [6]. Further, the “DTM (Dosis Tolerata Maxima)” value in [12] was 4,44 µg/ml.

Consider `COCC1(O)OC(C2CC(C)C(C3(C)CCC(C4(C)CC(C)C5(OC(CC6CCC(C)C(C(C)C(=O)O)O6)CC(OC)C5C)O4)O3)O2)C(C)CC1C` (stereo not shown) [Beispiel 7], for which the MHK in [7] is on record as 0,05 µg/ml; in data set [8], 0,05 µg/ml; in data set [9] it was 0,49 µg/ml; in data set [10], 0,16 µg/ml; in data set [13], 1,48 µg/ml; in [14], 0,05 µg/ml. Moreover, the MIC in data set [1] (setting [15]) was found to be 0.78 µg/mL (≈ 1.06 µM); in [2] (setting [16]), 3.13 µg/mL (≈ 4.24 µM); in data set [3] (setting [17]), 0.19 µg/mL (≈ 0.257 µM); in data set [4] (setting [18]), 0.78 µg/mL (≈ 1.06 µM); in [5] (setting [19]), 0.39 µg/mL (≈ 0.528 µM); in data set [6] (setting [20]), 0.39 µg/mL (≈ 0.528 µM). The “DTM (Dosis Tolerata Maxima)” value in [12] is listed as 4,44 µg/ml.

`COC1CC(CC2CCC(C)C(C(C)C(=O)O)O2)OC2(OC(C)(C3CCC(C)(C4OC(C5OC(O)(CSC#N)C(C)CC5C)CC4C)O3)CC2C)C1C` (stereo not shown) [Beispiel 4]: the MIC came to 0.78 µg/mL (≈ 1.02 µM) in data set [2]; 0.098 µg/mL (≈ 0.128 µM) in data set [3]; 0.78 µg/mL (≈ 1.02 µM) in data set [4]; 0.098 µg/mL (≈ 0.128 µM) in data set [5]; 0.78 µg/mL (≈ 1.02 µM) in data set [6].

In the case of `CCCCOCC1(O)OC(C2CC(C)C(C3(C)CCC(C4(C)CC(C)C5(OC(CC6CCC(C)C(C(C)C(=O)O)O6)CC(OC)C5C)O4)O3)O2)C(C)CC1C` (stereo not shown) [Beispiel 8], the MHK was 4,44 µg/ml in [7]; 0,16 µg/ml in [8]; 4,44 µg/ml in data set [9]; 0,16 µg/ml in [10]; 4,44 µg/ml in [11]; 4,44 µg/ml in data set [13]. The MHK in data set [14] is 0,05 µg/ml. Also, the minimal inhibitory concentration (MIC) in data set [1] (setting [15]) worked out at 0.78 µg/mL (≈ 0.999 µM); in data set [2] (setting [16]) it was 3.13 µg/mL (≈ 4.01 µM); in [3] (setting [17]) it was 0.098 µg/mL (≈ 0.125 µM); in data set [4] (setting [18]), 1.56 µg/mL (≈ 2 µM); in [5] (setting [19]), 0.19 µg/mL (≈ 0.243 µM); in [6] (setting [20]), 0.78 µg/mL (≈ 0.999 µM). In data set [12], the “DTM (Dosis Tolerata Maxima)” value is 13,3 µg/ml.

As to `COC1CC(CC2CCC(C)C(C(C)C(=O)O)O2)OC2(OC(C)(C3CCC(C)(C4OC(C5OC(O)(CBr)C(C)CC5C)CC4C)O3)CC2C)C1C` (stereo not shown) [Beispiel 3], the MHK in data set [7] is on record as 0,01 µg/ml; in [8], 0,3 µg/ml; in data set [10], 0,01 µg/ml; in [13], 0,3 µg/ml; in data set [14] it was 0,03 µg/ml. The MIC in data set [1] (setting [15]) is 0.013 µg/mL (≈ 0.0165 µM); in data set [2] (setting [16]), 0.098 µg/mL (≈ 0.124 µM); in [3] (setting [17]), less than 0.002 µg/mL; in data set [4] (setting [18]), 0.013 µg/mL (≈ 0.0165 µM); in [5] (setting [19]) it was less than 0.002 µg/mL; in data set [6] (setting [20]), 0.007 µg/mL (≈ 0.00888 µM). Further, the “DTM (Dosis Tolerata Maxima)” value in data set [12] is recorded as 0,89 µg/ml.

As to `COC1CC(CC2CCC(C)C(C(C)C(=O)O)O2)OC2(OC(C)(C3CCC(C)(C4OC(C5OC(O)(CCl)C(C)CC5C)CC4C)O3)CC2C)C1C` (stereo not shown) [Beispiel 2], the MHK is listed as 0,05 µg/ml in data set [7]; < 0,02 µg/ml in data set [8]; 0,49 µg/ml in data set [9]; 0,49 µg/ml in [13]; 0,05 µg/ml in data set [14]. Besides, the MIC in data set [1] (setting [15]) was determined as 0.098 µg/mL (≈ 0.132 µM); in data set [2] (setting [16]), 0.391 µg/mL (≈ 0.526 µM); in data set [3] (setting [17]) it was 0.007 µg/mL (≈ 0.00942 µM); in data set [4] (setting [18]), 0.098 µg/mL (≈ 0.132 µM); in data set [5] (setting [19]) it was 0.013 µg/mL (≈ 0.0175 µM); in data set [6] (setting [20]), 0.025 µg/mL (≈ 0.0336 µM). Moreover, the “DTM (Dosis Tolerata Maxima)” value in [12] is reported as 1,48 µg/ml.

These data come from patent EP0346760A2, “Derivatives of nigericine, methods for their preparation, compositions containing them and their use” (priority 1988, dated 1989).
